The values below come from patent US8030042B2, “Polyamino acid synthetase and gene encoding the same” (JNC Corporation, priority 2007, dated 2011).

In brackets after ≈: the same amount, converted by molar mass.

By MIC is commonly meant the smallest concentration in the dilution series that meets the test's criterion for growth inhibition. A higher MIC goes with a less susceptible organism.

In data set [1] the test system is ε-poly-L-lysine biosynthetic enzyme. Briefly: adenylation activity of L-lysine and other amino acids by ATP-PPi exchange reaction. The data set is classed as biochemical, Streptomyces albulus strain IFO14147. Conditions: for Substrate specificity: adenylated by the enzyme or not: 1 mM amino acid, "None" = was not adenylated. The procedure:
The adenylation activity of L-lysine and other amino acids was measured by ATP-PPi exchange reaction. A reaction solution (40 μl), which includes: 1 mM L-lysine or another amino acid; 5 mM MgCl2; 5 mM. ATP; 1 mM DTT; 20% (w/v) glycerol; 0.2% (w/v) NP-40; 0.2 mM sodium diphosphate; 51.8 kBq/ml [32P] sodium diphosphate; 100 mM TAPS-NaOH buffer solution (pH 8.5); and the enzyme, was incubated at 30° C. 1.0 ml of a solution containing 1.2% (w/v) active carbon, 0.1 M sodium diphosphate and 0.35 M perchloric acid was added thereto to terminate the reaction. After the active carbon was washed with pure water, the amount of radioactivity bound to the active carbon was measured using a liquid scintillation counter (Aloka).

Data set [2] relates to Streptomyces albulus. Briefly: minimum growth inhibitory concentration against the bacterium in a M9 minimum medium. Conditions: i.e. minimum concentration to inhibit aspartokinase. The data set is classed as cell-based.
The subject of data set [3] is ε-poly-L-lysine biosynthetic enzyme. In words: Enzymatic production of heteropolyamino acid from lysine analog and L-lysine (ESI-LC-MS). The data set is classed as biochemical, Streptomyces albulus strain IFO14147. Conditions: 2 mM substrate, L-lysine and analog mixed; 25° C., 4 hours; FIG. 9. The procedure:
A reaction solution (200 μl) containing 2 mM substrate amino acid (L-lysine and analog were mixed in a given ratio), 5 mM MgCl2, 5 mM ATP, 1 mM DTT, 20% glycerol, 0.2% (w/v) NP-40, 100 mM TAPS-NaOH buffer solution (pH 8.5) and about 10 μg of the purified enzyme preparation was put into a 1.5 ml microtube, and it was incubated at 25° C. 4 hours later, polyamino acid produced in a manner similar to that in Example 1 was subjected to ESI-LC-MS analysis.

Data set [4] shares this test system. In words: ε-poly-L-lysine biosynthesis activity (L-[U-14C]lysine taken into ε-poly-L-lysine). The data set is classed as biochemical, Streptomyces albulus strain IFO14147. The note with it: for Metal ion requirement: enzyme activity on addition of divalent cation: 5 mM Mg^2+, 5 mM Mn^2+, no concentration given for Ca^2+. The procedure: The measurement of the ε-poly-L-lysine biosynthesis activity was performed according to the method of Kawai et al. (Biochem Biophys Res Commun. 2003 Nov. 21; 311 (3): 635-40) with some modification. A reaction solution (40 μl), which includes: 1 mM L-lysine containing 92.5 kBq/ml L-[U-14C]lysine (Amersham Biosciences); 5 mM MgCl2; 5 mM ATP; 1 mM DTT; 20% (w/v) glycerol; 0.2% (w/v) NP-40; 100 mM TAPS-NaOH buffer solution (pH 8.5); and the enzyme, was incubated at 30° C. 10 μl of the reaction solution was spotted on a glass fiber filter paper having the diameter of 2.1 cm (Whatman), and it was immediately immersed in an ice-cold sodium solution of 5% (w/v) trichloroacetic acid-0.25% (w/v) tungstic acid. It was allowed to stand for 20 minutes and thereafter mildly shaken for 5 minutes. After the filter was shaken again in the same solution for 5 minutes, it was rinsed with ethanol and then dried. The amount of radioactivity bound to the filter was measured using a liquid scintillation counter (Aloka). The amount of enzyme by which 1 pmol/second of L-lysine is taken into ε-poly-L-lysine under the above-described reaction conditions was defined as 1 unit. Specific activity of a protein is represented by unit per 1 mg of the protein. Quantitation of protein was performed using the Bradford method. A calibration curve was made using bovine serum albumin (Wako Pure Chemical Industries, Ltd.).

For data set [5], the system named is Streptomyces albulus. In words: Microbial production of heteropolyamino acid by viable bacterium (LC-MS). The note with it: 8 mM analog, 16 mM L-threonine, L-lysine; pH 4.2, 30° C., 48 hours; FIG. 10. The data set is classed as cell-based. The procedure: A bacterium of Streptomyces albulus, which was obtained by culturing in a M3G medium (Example 1) at 30° C. for 36 hours, was washed with 100 mM citrate buffer solution (pH 4.2) twice. The washed bacterium obtained from 100 ml of culture solution was suspended in a reaction solution for bacterium consisting of 50 ml of 5% glucose, 1% ammonium sulfate, 8 mM S-(2-aminoethyl)-L-cysteine, 16 mM L-threonine (the concentration of each of the amino acids corresponds to a minimum growth inhibitory concentration against the bacterium in a M9 minimum medium, i.e., a minimum concentration to inhibit aspartokinase which is the key enzyme for L-lysine biosynthesis), and 100 mM citrate buffer solution (pH 4.2) containing a given amount of L-lysine, and it was subjected to shaking culture at 30° C. for 48 hours. After the completion of culture, polyamino acid contained in the culture supernatant collected by centrifugation was subjected to LC-MS analysis using the method of Example 1 (paragraph [0091]).

Data set [6] has as its system ε-poly-L-lysine biosynthetic enzyme. Briefly: adenylation activity of L-lysine and other amino acids by ATP-PPi exchange reaction. The data set is classed as biochemical, Streptomyces albulus strain IFO14147. Conditions: nucleotide in place of ATP.

`CC(C)C[C@H](N)C(=O)O` [L-Leu]: in data set [1], the “Substrate specificity: adenylated by the enzyme or not” value was “None”.

With `N[C@@H](CC(=O)O)C(=O)O` [L-Asp], the “Substrate specificity: adenylated by the enzyme or not” value in data set [1] is “None”.

For the molecule `NC(=O)C[C@H](N)C(=O)O` [L-Asn], the “Substrate specificity: adenylated by the enzyme or not” value in data set [1] is reported as “None”.

As to `C[C@H](N)C(=O)O` [L-Ala], the “Substrate specificity: adenylated by the enzyme or not” value in data set [1] is reported as “None”.

In the case of `N[C@@H](Cc1c[nH]cn1)C(=O)O` [L-His], in data set [1], the “Substrate specificity: adenylated by the enzyme or not” value was “None”.

As for `N[C@@H](CS)C(=O)O` [L-Cys], in data set [1], the “Substrate specificity: adenylated by the enzyme or not” value is listed as “None”.

In the data set on Streptomyces albulus [2], `C[C@@H](O)[C@H](N)C(=O)O` [L-Thr, L-threonine] displayed an MIC of 16 mM (≈ 1910 µg/mL). Moreover, the “Substrate specificity: adenylated by the enzyme or not” value in data set [1] is listed as “None”.

With `N[C@@H](CO)C(=O)O` [L-Ser], the “Substrate specificity: adenylated by the enzyme or not” value in data set [1] was “None”.

On to `NCC(O)CCC(N)C(=O)O` (racemic) [DL-5-hydroxylysine], for which the “Analog taken into the polylysine molecule by the enzyme (heteropolyamino acid)” value in data set [3] was “taken into the polylysine molecule”. Also, the “Substrate specificity: adenylated by the enzyme or not” value in data set [1] is listed as “adenylated”.

Consider `NCCCC[C@H](N)C(=O)O` [L-lysine], for which, in data set [1] (activity to L-lysine regarded as 100%, FIG. 8), the “Relative activity in amino acid activation (adenylation) reaction” value came to 100%.

`N[C@@H](Cc1ccc(O)cc1)C(=O)O` [L-Tyr]: the “Substrate specificity: adenylated by the enzyme or not” value in data set [1] was “None”.

For the molecule `[Mg+2]` [Mg^2+], the “Metal ion requirement: enzyme activity on addition of divalent cation” value (“Metal ion requirement: enzyme activity” for short) in data set [4] is recorded as “maximal activity”.

For the molecule `[Ca+2]` [Ca^2+], the “Metal ion requirement: enzyme activity” value in data set [4] is on record as “activated slightly”.

Turning to `NCCSC[C@H](N)C(=O)O` [S-(2-aminoethyl)-L-cysteine], the “Analog taken into the polylysine molecule by viable bacterium (heteropolyamino acid)” value in the data set on Streptomyces albulus [5] was “taken into the polylysine molecule”. Further, the “Analog taken into the polylysine molecule by the enzyme (heteropolyamino acid)” value in data set [3] is “taken into the polylysine molecule”. This molecule also displayed a minimum inhibitory concentration (MIC) against Streptomyces albulus [2] of 8 mM (≈ 1310 µg/mL). In addition, the “Substrate specificity: adenylated by the enzyme or not” value in data set [1] was “adenylated”.

On to `N=C(N)NCCC[C@H](N)C(=O)O` [L-Arg], for which the “Substrate specificity: adenylated by the enzyme or not” value in data set [1] is given as “None”.

With `O=C(O)[C@@H]1CCCN1` [L-Pro], in data set [1], the “Substrate specificity: adenylated by the enzyme or not” value is on record as “None”.

Turning to `N[C@@H](CCC(=O)O)C(=O)O` [L-Glu], in data set [1], the “Substrate specificity: adenylated by the enzyme or not” value is on record as “None”.

Take `Nc1nc2c(ncn2[C@@H]2O[C@H](COP(=O)(O)OP(=O)(O)OP(=O)(O)O)[C@@H](O)[C@H]2O)c(=O)[nH]1` [GTP]: the “Nucleotide specificity: activation of substrate amino acids” value (“Nucleotide specificity: activation” for short) in data set [6] is on record as “not activated”.

`Nc1ncnc2c1ncn2[C@@H]1O[C@H](COP(=O)(O)OP(=O)(O)OP(=O)(O)O)[C@@H](O)[C@H]1O` [ATP]: the “Nucleotide specificity: activation” value in data set [6] is reported as “ATP-specific”.

With `Nc1ccn([C@@H]2O[C@H](COP(=O)(O)OP(=O)(O)OP(=O)(O)O)[C@@H](O)[C@H]2O)c(=O)n1` [CTP], the “Nucleotide specificity: activation” value in data set [6] was “not activated”.

In the case of `NCCCC[C@@H](N)C(=O)O` [D-lysine], in data set [1], the “Substrate specificity: adenylated by the enzyme or not” value is “adenylated”.

Turning to `CC[C@H](C)[C@H](N)C(=O)O` [L-Ile], the “Substrate specificity: adenylated by the enzyme or not” value in data set [1] was “None”.

Consider `NCCOC[C@H](N)C(=O)O` [O-(2-aminoethyl)-L-serine], for which, in data set [3], the “Analog taken into the polylysine molecule by the enzyme (heteropolyamino acid)” value is reported as “taken into the polylysine molecule”. For the same molecule, in data set [1], the “Substrate specificity: adenylated by the enzyme or not” value is recorded as “adenylated”.

Turning to `N[C@@H](Cc1c[nH]c2ccccc12)C(=O)O` [L-Trp], in data set [1], the “Substrate specificity: adenylated by the enzyme or not” value is on record as “None”.

`NCC(=O)O` [Gly]: the “Substrate specificity: adenylated by the enzyme or not” value in data set [1] is given as “None”.

`[Mn+2]` [Mn^2+]: in data set [4], the “Metal ion requirement: enzyme activity” value is “maximal activity”.

`O=c1ccn([C@@H]2O[C@H](COP(=O)(O)OP(=O)(O)OP(=O)(O)O)[C@@H](O)[C@H]2O)c(=O)[nH]1` [UTP]: in data set [6], the “Nucleotide specificity: activation” value was “not activated”.

For `CSCC[C@H](N)C(=O)O` [L-Met], the “Substrate specificity: adenylated by the enzyme or not” value in data set [1] is on record as “None”.

Take `CC(C)[C@H](N)C(=O)O` [L-Val]: the “Substrate specificity: adenylated by the enzyme or not” value in data set [1] is recorded as “None”.

On to `NC(=O)CC[C@H](N)C(=O)O` [L-Gln], for which the “Substrate specificity: adenylated by the enzyme or not” value in data set [1] is “None”.

As to `N[C@@H](Cc1ccccc1)C(=O)O` [L-Phe], the “Substrate specificity: adenylated by the enzyme or not” value in data set [1] is reported as “None”.

B1: ε-poly-L-lysine biosynthetic enzyme: membrane-bound ε-poly-L-lysine biosynthetic enzyme (NRPS) from Streptomyces albulus strain IFO14147, amino acid sequence SEQ ID NO: 2 (protein, listed as Streptomyces albulus)
chain: MSSPLLESSFEPSEPAPQQALYRTAGNPAPRTLLDVLDATAAAHPQAIALDTGSEALTYRDLCIEIERRARQLRDRGIGPGDRVGVRVPSGTAELYLSILAVLRSGAAYVPVDADDPDERAATVFREAAVCAVLGPDGPLPGPARPLGDPRSAGPQDDAWIIFTSGSTGAPKGVAVSHRSAAAFVDAEADLFCQDQPLGPGDRVLAGLSVAFDASCEEMWLAWRYGACLVPAPRALVRAGHELGPWLVERGITVVSTVPTLAALWPDEAMRRVRLLIVGGESCPAGLVDRFAGPGREMWNTYGPTETTVVACAARLLPGEPVRIGLPLKGWQLAVVDRTGQPVPFGAEGELLISGVGTARYLDPAKDAERFRPDDALGAARVYRTGDLVRAEPEGLLFVGRADDQIKLGGRRIELGEIDAALAALPGVRGAAAAVQTTPAGTQVLVGYVVPEQRTADGSSFQQDKARALLQERLPAQLVPVLAEVESLPTRTSGKVDRKALPWPLPSAPVDSATGDPATALDGTAARLAGIWEELLGVRPGPDSDFVSLGGTSLVAARMASQLRIHHPGVSVADLYRHPVLRDMAEHLDSLGGPVDEVRPVRPVPRRTGFVQLLVQTGLYGIAGLRGLVGLALADNVLGLLAPQVWAPHTAWWLIIVGWVVLYSAPMRCALGALAARALAGTIKPGAYPRGGATHLRLWTAERVVAAFGVPSLLGTPWTRLYARSLGCATGRNVALHTMPPVTGLAELGDGCSVEPEADISGWWLDGDTLHIGAVRIGAGARVAHRSMLMPGAVVGQGAELASGACLDGEIPDGASWSGSPARPAGAAERMAGAAWPAPAWQRSRRWSAAYGLTLLGLSLLALLSTAPALVGAYFLLRDSGTLATAGLRLLLAVPVFTLLTTGCSLLVTAAVVRLLGRGITPGLHPASGGVAWRAWLVTRLLDGARGSLFPLYASLGTPHWLRLLGAKVGRHAEISTVLPLPSLLHVEDGAFLADDTLVAPFELRGGWLRLGTVRIGRRAFVGNSGIVDPGHDVPDHSLVGVLSNAPADGEPGSSWLGRPAMPLPRVATQADPARTFAPPRRLVRARAAVELCRVLPLMCGLALAEGVFLTEQDAFAQGGLGLAALVGAPLLLASGLVALLVTTLAKWLLVGRFTVSEHPLWSSFVWRNELYDTFVESLAVPSMAGAFTGTPVLNWWLRTLGAKIGRGVWLESYWLPETDLITVADGVSVNRGCVLQTHLFHDRIMRLDTVRLAEGSSLGPHGIVLPGTEVGARASIAPSSLVMRGESVPAHTRWAGNPIAGERPARPVPARAEGGAAA
For B1, in data set [4] (purified enzyme preparation), the “Optimum pH of synthesis reaction” value was 8.5.
